Measurements reported in US6482827B1, “Matrix metalloproteinase inhibitors” (Pharmacia & Upjohn S.p.A., priority 1997, dated 2002).
Values after ≈ are worked out from the molar mass of the structure shown.

Columns and labels:
[1] = PK parameters, oral route, cynomolgus monkey; type: in vivo; conditions: plasma, 10-15 mg/kg
Protocol: (§1) As an additional example, Table 4 reports the maximum plasma concentration (Cmax) and oral bioavailability (% F; calculated from dose-normalised ratio of oral to i.v. mean AUC values) after oral administration to rats or cynomolgus monkeys of a […] of some representative compounds of the present invention.

[2] = PK parameters, oral route, rat; type: in vivo; conditions: plasma, 10-15 mg/kg
Protocol: as §1

[3] = PK parameters in rats, iv route; conditions: rat, in vivo, 10-15 mg/kg
Protocol: As a further example, Table 3 reports clearance and AUC values measured after intravenous administration to rats of a […] of some representative compounds of the present invention.

[4] = biological target: T1, Human stromelysin-1-255 (MMP-3) (Homo sapiens, UniProt P08254); assay: Biochemical assay (Protocol A), Ki at steady state, MMP-3; conditions: preincubation, 37° C., pH=7.4, read-out: Ki at steady state (Ki*) for inhibition of MMP-3
T1 construct: host or cells: E. coli
T1 sequence (P08254 100-255 limits assumed): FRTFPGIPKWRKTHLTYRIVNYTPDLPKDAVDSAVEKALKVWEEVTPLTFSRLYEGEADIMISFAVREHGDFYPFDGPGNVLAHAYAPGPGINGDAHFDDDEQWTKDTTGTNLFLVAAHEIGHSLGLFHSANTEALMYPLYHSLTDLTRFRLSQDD
Protocol: (§2) Human gelatinase-A (MMP-2) was obtained as pro-enzyme (72 kDa) and was activated with 1 mM 4-aminophenylmercuric acetate for 30 min at 37° C. immediately prior to use. Human stromelysin-1-255 (MMP-3) was obtained as a recombinant pro-enzyme isolated from E. coli and activated by heat (1 h, 55° C.).
(§3) The substrate was the commercial quenched-fluorescence peptide Mca-Pro-Leu-Gly-Leu-Dpa-Ala-Arg-NH2, that is (7-methoxycoumarin4-yl)Acetyl-Pro-Leu-Glv-Leu-(3-[2,4-dinitrophenyl]-L-2,3-diamino-propionyl)-Ala-Arg-NH2 (C. G. Knight et al., FEBS Lett.296:263, 1992). The enzymes cleave at the Gly-Leu bond, removing the internally quenching Dpa group. Release of the highly fluorescent peptide Mca-Pro-Leu was followed fluorimetrically at 37° C. using a Perkin Elmer LS-50 Fluorescence Spectrophotometer fitted with a thermostatted four position stirring cell changer. The excitation wavelength was set at 326 nm (bandwidth 5 nm) and the emission at 392 nm (bandwidth 20 nm). Km values of this substrate for the three MMP's is 70 μM or more (Knight et al., reference above). Substrate concentration was 2 μM in the tests, so that we could approximate to unit the term (1+[substrate]/KM) in calculations. The substrate was stable for over 60 minutes in the assay conditions, giving no appreciable increment of fluorescence. Full response was adjusted against 200 nM Mca-Pro-Leu-OH (the released fluorescent peptide) and the instrument was calibrated in the range 0-100 nM Mca-Pro-Leu-OH, corresponding to 0-5% extent of hydrolysis of the 2 μM substrate. The aqueous assay buffer was 50 mM Tris/HCl pH=7.4 containing 0.15 M NaCl, 10 mM CaCl2, 0.01 mM ZnCl2 and 0.05% Brij 35. The concentration of the activated enzyme was determined by titration against representative inhibitors described in the literature and synthesized in house: Roche Ro31-9790 (N. G. Knebel et al., J. Chromatogr. B 673:213, 1995) for MMP-1, and Celltech CT-1418 (compound 1 in S. K. Chander, J. Pharm. Sci. 84:404, 1995) for MMP-2 and MMP-3. Enzyme concentrations in the tests were set at 1.0 nM for MMP-1, 0.04 nM for MMP-2, and 3.0 nM for M-3. Under our assay conditions, we measured keat/KM values of 26900, 669000 and 9740 1/(M×s) for MMP-1, MMP-2 and MMP-3, respectively. All the three enzymes were found stable for over three hours in the assay conditions.
(§4) The inhibition constant for compounds of the present invention was measured at steady state (Ki*; see J. F. Morrison and C. T. Walsh, Adv. Enzymol. Relat. Areas Mol. Biol. 61:201, 1988), upon preincubation experiment, by measuring V0, the initial rate in the absence of inhibitor, and Vs, the steady-state velocity, at different concentrations of inhibitors in the region of their enzyme-inhibitor dissociation constants.
(§5) On a routine basis, 1.94 mL of assay buffer was pre-heated at 37° C. in a vial, 0.02 mL of inhibitor in DMSO (or DMSO only), and 0.02 ml of 100 nM MMP-1 or 4 nM MMP-2 or 300 nM MMP-3 were added, mixed, and the vial was held at 37° C. for 5-180 minutes. Then 0.02 ml of 0.2 mM substrate was added, mixed and transferred into a pre-heated cell. The sample was allowed to equilibrate in the cuvette for 3-5 min at 37° C. against small changes in temperature and changes in the enzyme-inhibitor equilibria related to addition of substrate. After that, the linear increase of fluorescence was monitored over 3-5 min, and the slope (Vo or Vs) was obtained. Inhibitor concentrations were varied to collect data over Vs/Vo ratio ranging from 0.05 to 0.95. The values of Ki* were calculated by nonlinear weighted regression to the tight-binding equation according to Morrison and Walsh above:
(§6) Vs/Vo=[1/(2×Et)]×SQR[(Ki*+It−Et)^2+4×Ki*×Et]−(Ki*+It−Et)
(§7) wherein Et is the total enzyme concentration, and It is the total inhibitor concentration. The following Table I lists Ki* obtained for some representative examples: […]

[5] = biological target: T2, Human gelatinase-A (MMP-2) (Homo sapiens, UniProt P08253); assay: Biochemical assay (Protocol A), Ki at steady state, MMP-2; conditions: preincubation, 37° C., pH=7.4, read-out: Ki at steady state (Ki*) for inhibition of MMP-2
T2 sequence (P08253 110-660): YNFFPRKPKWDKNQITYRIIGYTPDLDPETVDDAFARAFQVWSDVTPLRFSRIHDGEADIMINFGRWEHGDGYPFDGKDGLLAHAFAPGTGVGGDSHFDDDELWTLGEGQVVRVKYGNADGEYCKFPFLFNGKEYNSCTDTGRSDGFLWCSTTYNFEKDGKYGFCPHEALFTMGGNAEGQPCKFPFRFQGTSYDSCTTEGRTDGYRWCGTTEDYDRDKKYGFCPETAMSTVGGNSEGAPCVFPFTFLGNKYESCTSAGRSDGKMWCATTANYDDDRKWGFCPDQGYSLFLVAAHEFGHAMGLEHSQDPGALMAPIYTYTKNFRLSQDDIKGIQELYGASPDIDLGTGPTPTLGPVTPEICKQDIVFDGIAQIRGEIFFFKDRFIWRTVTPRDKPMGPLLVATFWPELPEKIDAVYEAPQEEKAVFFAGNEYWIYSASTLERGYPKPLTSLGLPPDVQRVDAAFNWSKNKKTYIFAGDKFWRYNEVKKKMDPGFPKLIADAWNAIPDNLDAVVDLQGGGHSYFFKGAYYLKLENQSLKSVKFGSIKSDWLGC
Protocol: as §2, §3, §4, §5, §6, §7

Aqueous solubility = type: physicochemical; conditions: water; 25° C., Conditions B
[6] = biological target: T3, Human collagenase (MMP-1) (Homo sapiens, UniProt P03956); assay: Biochemical assay (Protocol A), Ki at steady state, MMP-1; conditions: preincubation, 37° C., pH=7.4, read-out: Ki at steady state (Ki*) for inhibition of MMP-1
T3 sequence (P03956 101-269): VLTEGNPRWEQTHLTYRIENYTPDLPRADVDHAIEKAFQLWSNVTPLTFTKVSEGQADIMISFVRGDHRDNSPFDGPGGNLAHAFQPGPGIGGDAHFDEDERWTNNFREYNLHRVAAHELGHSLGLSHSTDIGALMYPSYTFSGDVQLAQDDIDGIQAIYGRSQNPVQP
Protocol: as §2, §3, §4, §5, §6, §7

[7] = clinic; cited from earlier work
stifle joints = assay: Animal model of tolerability with MMP inhibitors, histological evaluation of stifle joints; type: in vivo; conditions: rats, intraperitoneal, 10 consecutive days, daily doses of 150 mg/kg or less
Excerpt: Although MMPs have been recognized as drug targets for at least 20 years, and potent MMP inhibitors described by formula (A) have been disclosed since 1986 or before (e.g., see J. P. Dickens et al., U.S. Pat. No. 4,599,361), no drug of this type has arrived at the market yet. This is not because of questions about the therapeutic potential of MMP inhibitors, but because of problems of “peptide-based hydroxamates”, such as aqueous solubility, metabolic stability, and other desirable properties, oral bioavailability in particular (e.g., J. R. Porter, reference above; J. Hodgson, “Remodelling MMPIs”, Biotechnology 13:554-557, 1995). For example, it is well known that most “peptide-based hydroxamates” of general formula (A) are rapidly glucuronidated, oxidized to the carboxylic acid, and excreted in the bile (e.g., see J. Singh et al., Bioorg. Med. Chem. Lett. 5:337-342, 1995, and other references above). Finally, another type of problem of the known inhibitors described by general formula (A) may be one of tolerability. […] We have extended these observations by developing an animal model of tolerability with MMP inhibitors (S. Castellino et al., unpublished), involving intraperitoneal administration of the latter in rats for 10 consecutive days, and histological evaluation of stifle joints at the end of treatment. […]

[8] = dose-normalised ratio of oral to i.v. mean AUC, read-out: % F (oral bioavailability)

N[C@H](C(=O)NO)[C@@H](CC1CCCC1)C(=O)N1CCN(Cc2ccc3c(c2)OCO3)CC1 [Example 27, (3S-Amino-2R-cyclopentylmethyl-4-hydroxyamino)succinyl-(4-piperonyl)piperazinamide]
bioavailability [1, 8]: 34% | Cmax ([1]; read-out: Cmax): 3130 ng/mL | bioavailability [2, 8]: 58% | Cmax ([2]; read-out: Cmax): 7910 ng/mL | AUC [3]: 11300 ng·h/mL | clearance [3]: 23 mL/min/kg | Ki [4]: 0.24 µM | Ki [5]: 0.02 µM | solubility (Aqueous solubility): 7100 µg/mL (≈ 16.4 mM) | Ki [6]: 0.0065 µM

CNC(=O)[C@@H](NC(=O)[C@H](CC(C)C)[C@H](O)C(=O)NO)C(C)(C)C [marimastat]
Tolerability in humans [7]: muscoloskeletal problems

CNC(=O)[C@@H](NC(=O)[C@@H](CC(=O)NO)CC(C)C)C(C)(C)C [Ro31-9790]
Histological findings in stifle joints (stifle joints): hypertrophic fibrosis of stifle ligaments, interstitial hypertrophic fibrosis of skeletal muscles, hypertrophic fibroplasia of the periostium and synovium, and chondrosysplasia and decreased endochondrial ossification of the ephyseal plate
